ChEMBL document CHEMBL3259558, “Identification of amides derived from 1H-pyrazolo[3,4-b]pyridine-5-carboxylic acid as potent inhibitors of human nicotinamide phosphoribosyltransferase (NAMPT)” (Bioorg Med Chem Lett, 2013)
Converted amounts (≈) assume the structure as drawn. The source made the active and inactive calls. No cut-off for these calls is given here.

What was measured:
[1] = Antiproliferative activity against dog A72 cells assessed as cell viability after 96 hrs by CyQuant staining-based assay; type: functional; settings: Canis lupus familiaris, A-72, 96 h
[2] = Half life in NCR nude mouse at 100 mg/kg, po; type: ADME, organism-based; design: dose 100 mg/kg, route oral; settings: in vivo
[3] = test system: Tumour; experiment: Reduction of NAD level in tumor of NCR nude mouse xenografted with human A2780 cells at 100 mg/kg, po qd measured after day-5 dose for 1 to 24 hrs relative to vehicle-treated control; type: functional, organism-based; design: dose 100 mg/kg
[4] = test system: HCT-116; experiment: Antiproliferative activity against human HCT116 cells assessed as cell viability after 96 hrs by CyQuant staining-based assay; type: functional; settings: HCT-116, 96 h
[5] = Half life in NCR nude mouse at 5 mg/kg, iv; type: ADME, organism-based; design: dose 5 mg/kg, route intravenous; settings: in vivo
[6] = Cytotoxicity against African green monkey COS1 cells assessed as cell viability after 96 hrs by CyQuant staining-based assay; settings: Chlorocebus aethiops, COS-1, 96 h
[7] = Cytotoxicity against African green monkey COS7 cells assessed as cell viability after 96 hrs by CyQuant staining-based assay; settings: Chlorocebus aethiops, COS-7, 96 h
[8] = Octanol-PBS buffer distribution coefficient, log D of the compound at pH 7.4 by shake flask method; type: physicochemical
[9] = Tmax in NCR nude mouse at 100 mg/kg, po; type: ADME, organism-based; design: dose 100 mg/kg, route oral; settings: in vivo
[10] = Antiproliferative activity against human HT1080 cells assessed as cell viability after 96 hrs by CyQuant staining-based assay; type: functional; settings: HT-1080, 96 h
[11] = Antiproliferative activity against mouse KPR cells assessed as cell viability after 96 hrs by CyQuant staining-based assay; type: functional
[12] = biological target: T1, Nicotinamide phosphoribosyltransferase (Mus musculus, UniProt Q99KQ4); experiment: Inhibition of mouse NAMPT after 30 mins by mass spectrometry-based analysis
T1 sequence (Q99KQ4 whole entry): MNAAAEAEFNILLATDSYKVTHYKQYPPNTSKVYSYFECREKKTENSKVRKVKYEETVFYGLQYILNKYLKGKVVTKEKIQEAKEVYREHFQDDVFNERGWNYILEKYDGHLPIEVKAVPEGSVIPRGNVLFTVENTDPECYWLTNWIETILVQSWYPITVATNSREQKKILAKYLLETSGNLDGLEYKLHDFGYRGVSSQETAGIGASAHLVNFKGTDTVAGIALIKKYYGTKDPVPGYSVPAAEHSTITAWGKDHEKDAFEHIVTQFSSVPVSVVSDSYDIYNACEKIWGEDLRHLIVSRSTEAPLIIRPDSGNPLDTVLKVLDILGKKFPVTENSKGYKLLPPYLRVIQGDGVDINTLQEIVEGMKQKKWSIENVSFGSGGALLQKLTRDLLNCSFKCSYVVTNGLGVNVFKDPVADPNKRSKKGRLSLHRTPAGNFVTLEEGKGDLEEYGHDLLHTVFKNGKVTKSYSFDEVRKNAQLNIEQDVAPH

[13] = test system: PC-3; experiment: Antiproliferative activity against human PC3 cells assessed as cell viability after 96 hrs by CyQuant staining-based assay; type: functional; settings: PC-3, 96 h
[14] = Drug uptake in Sprague-Dawley rat retina at 30 mg/kg, po single dose measured 6.5 hrs after dose
[15] = Antiproliferative activity against dog D17 cells assessed as cell viability after 96 hrs by CyQuant staining-based assay; type: functional; settings: Canis lupus familiaris, D17, 96 h
[16] = Volume of distribution at steady state in NCR nude mouse at 5 mg/kg, iv; type: ADME, organism-based; design: dose 5 mg/kg, route intravenous; settings: in vivo, read-out: Vdss
[17] = Apparent permeability from apical to basolateral side in MDCK cells at 10 uM by LC-MS/MS analysis; type: ADME, cell-based, Canis lupus familiaris; settings: dog
[18] = Antiproliferative activity against human MIAPaCa2 cells assessed as cell viability after 96 hrs by CyQuant staining-based assay; type: functional; settings: MIA PaCa-2, 96 h
[19] = Cmax in NCR nude mouse at 100 mg/kg, po; type: ADME, organism-based; design: dose 100 mg/kg, route oral; settings: in vivo
[20] = Drug uptake in Sprague-Dawley rat retina at 30 mg/kg, po single dose measured 1 hr after dose
[21] = biological target: T1, Nicotinamide phosphoribosyltransferase; experiment: Inhibition of NAMPT in mouse cells assessed as reduction in NAD level after 48 hrs by mass spectrometry; type: cell-based
[22] = Ratio of drug level in retina to plasma of Sprague-Dawley rat at 30 mg/kg, po qd for 2 days measured 6.5 hrs after last dose
[23] = test system: A2780; experiment: Antiproliferative activity against human A2780 cells assessed as cell viability after 72 hrs by SRB assay; type: functional, cell-based; settings: A2780, 72 h
[24] = Inhibition of C-terminal His-6-tagged cynomolgus monkey NAMPT expressed in Escherichia coli (DE3)-RIL cells after 30 mins by mass spectrometry-based analysis; design: species or system Macaca fascicularis
[25] = Clearance in NCR nude mouse at 5 mg/kg, iv; type: ADME, organism-based; design: dose 5 mg/kg, route intravenous; settings: in vivo
[26] = test system: PC-3; experiment: Cellular uptake in human PC3 cells at 200 nM; type: ADME, cell-based; settings: pc-3, 0.2 µM
[27] = Cellular uptake in mouse KPP cells at 1000 nM; type: ADME, cell-based; settings: 1 µM
[28] = Ratio of drug level in retina to plasma of Sprague-Dawley rat at 30 mg/kg, po qd for 2 days measured 1 hr after last dose
[29] = Fraction unbound in mouse plasma at 5 uM by LC-MS/MS analysis; type: ADME, cell-free
[30] = test system: A2780; experiment: Antiproliferative activity against human A2780 cells assessed as cell viability after 72 hrs by SRB assay in presence of nitotinamide mononucleotide; type: functional, cell-based
[31] = Antiproliferative activity against mouse KPP cells assessed as cell viability after 96 hrs by CyQuant staining-based assay; type: functional
[32] = Aqueous solubility of the compound in PBS at pH 7.2 by LC/CLND analysis; type: physicochemical
[33] = Cytotoxicity against rhesus monkey RF/6A cells assessed as cell viability after 96 hrs by CyQuant staining-based assay; settings: Macaca mulatta
[34] = test system: Mus musculus; experiment: Toxicity in NCR nude mouse xenografted with human A2780 cells assessed as decrease in body weight at 100 mg/kg, po qd measured after 5 days; type: organism-based; design: dose 100 mg/kg, route oral; settings: in vivo, 120 h
[35] = Dissociation constant, pKa of the compound; type: physicochemical
[36] = Antiproliferative activity against mouse B16F10 cells assessed as cell viability after 96 hrs by CyQuant staining-based assay; type: functional; settings: B16-F10, 96 h
[37] = Cellular uptake in mouse KPP cells at 200 nM; type: ADME, cell-based; settings: 0.2 µM
[38] = Inhibition of C-terminal His-6-tagged dog NAMPT expressed in Escherichia coli (DE3)-RIL cells after 30 mins by mass spectrometry-based analysis; design: species or system Canis lupus familiaris
[39] = biological target: Nicotinamide phosphoribosyltransferase (Rattus norvegicus, UniProt Q80Z29); experiment: Inhibition of rat NAMPT after 30 mins by mass spectrometry-based analysis
Nicotinamide phosphoribosyltransferase (Rattus norvegicus, UniProt Q80Z29), sequence (Q80Z29 whole entry): as the sequence (Q99KQ4 whole entry) above, with T335S, N439T, I484M counted along it

[40] = Antiproliferative activity against human Calu6 cells assessed as cell viability after 96 hrs by CyQuant staining-based assay; type: functional; settings: Calu-6, 96 h
[41] = test system: PC-3; experiment: Cellular uptake in human PC3 cells at 1000 nM; type: ADME, cell-based; settings: pc-3, 1 µM
[42] = test system: A2780; experiment: Antitumor activity against human A2780 cells xenografted in NCR nude mouse assessed as tumor regression at 100 mg/kg, po qd measured for 5 to 15 days; type: functional, organism-based; design: dose 100 mg/kg
[43] = Antiproliferative activity against dog DH82 cells assessed as cell viability after 96 hrs by CyQuant staining-based assay; type: functional; settings: Canis lupus familiaris, DH82, 96 h
[44] = biological target: Nicotinamide phosphoribosyltransferase (Homo sapiens, UniProt P43490); experiment: Inhibition of C-terminal His-6-tagged full length human NAMPT expressed in Escherichia coli (DE3) cells after 30 mins by mass spectrometry-based analysis
Nicotinamide phosphoribosyltransferase (Homo sapiens, UniProt P43490), sequence (P43490 whole entry): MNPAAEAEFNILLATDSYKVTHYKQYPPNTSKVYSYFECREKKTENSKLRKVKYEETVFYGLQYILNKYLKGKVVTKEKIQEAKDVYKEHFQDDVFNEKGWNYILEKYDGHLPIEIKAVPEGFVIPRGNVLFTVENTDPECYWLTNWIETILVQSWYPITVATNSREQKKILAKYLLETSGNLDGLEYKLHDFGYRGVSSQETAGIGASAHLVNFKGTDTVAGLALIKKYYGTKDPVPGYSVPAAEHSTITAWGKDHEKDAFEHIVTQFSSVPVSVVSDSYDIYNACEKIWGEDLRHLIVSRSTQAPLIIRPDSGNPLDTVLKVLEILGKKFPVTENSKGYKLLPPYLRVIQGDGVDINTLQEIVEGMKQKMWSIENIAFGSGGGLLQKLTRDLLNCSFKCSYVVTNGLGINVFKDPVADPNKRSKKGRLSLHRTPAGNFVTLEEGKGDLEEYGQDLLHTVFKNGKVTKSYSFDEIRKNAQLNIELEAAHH

[45] = Drug uptake in Sprague-Dawley rat retina at 30 mg/kg, po qd for 2 days measured 1 hr after last dose in presence of nicotinic acid; type: ADME, organism-based; design: dose 30 mg/kg, route oral; settings: read-out: Drug uptake
[46] = Ratio of drug level in retina to plasma of Sprague-Dawley rat at 30 mg/kg, po qd for 2 days measured 6.5 hrs after last dose in presence of nicotinic acid
[47] = Ratio of drug level in retina to plasma of Sprague-Dawley rat at 30 mg/kg, po qd for 2 days measured 1 hr after last dose in presence of nicotinic acid
[48] = Drug uptake in Sprague-Dawley rat retina at 30 mg/kg, po qd for 2 days measured 6.5 hrs after last dose in presence of nicotinic acid; type: ADME, organism-based; design: dose 30 mg/kg, route oral; settings: read-out: Drug uptake

O=C(NCc1ccc(S(=O)(=O)c2cccc(C(F)(F)F)c2)cc1)c1cnc2[nH]ncc2c1
IC50 [1]: 0.023 µM | half-life [2]: 3.4 h | Activity [3]: Active | IC50 [4]: 0.008 µM | half-life [5]: 2.6 h | IC50 [6]: 0.501 µM | IC50 [7]: 0.863 µM | logD [8]: 3.4 | Tmax [9]: 0.25 h | IC50 [10]: 0.009 µM | IC50 [11]: > 1 µM | IC50 [12]: 0.059 µM | IC50 [13]: 0.009 µM | concentration at 6.5 h [14]: 680 nM | IC50 [15]: 0.098 µM | Vd [16]: 0.45 L/kg | Papp A→B at 10 µM [17]: 11 ×10⁻⁶ cm/s | IC50 [18]: 0.03 µM | Cmax [19]: 53000 nM | concentration at 1 h [20]: 940 nM | EC50 [21]: 0.07 µM | Kp at 6.5 h [22]: 0.093 | IC50 [23]: 0.0043 µM | IC50 [24]: 0.073 µM | clearance [25]: 3.3 mL/min/kg | Drug uptake [26]: 10 nM | Drug uptake [27]: 74 nM | Kp at 1 h [28]: 0.071 | fraction unbound at 5 µM [29]: 0.013 | inhibition [30]: inactive | IC50 [31]: 0.775 µM | solubility [32]: 1.4 µM (≈ 0.645 µg/mL) | IC50 [33]: 0.386 µM | Activity [34]: Toxic | pKa [35]: < 2 | IC50 [36]: > 1 µM | Drug uptake [37]: 12 nM | IC50 [38]: 0.022 µM | IC50 [39]: 0.035 µM | IC50 [40]: 0.021 µM | Drug uptake [41]: 54 nM | Activity [42]: Active | IC50 [43]: 0.041 µM

O=C(NCc1ccc(S(=O)(=O)c2cncc(Cl)c2)cc1)c1cnc2[nH]ncc2c1
IC50 [44]: 0.011 µM | Papp A→B at 10 µM [17]: 2.5 ×10⁻⁶ cm/s | IC50 [23]: 0.0024 µM | fraction unbound at 5 µM [29]: 0.074 | inhibition [30]: inactive | solubility [32]: < 1 µM

O=C(NCc1ccc(S(=O)(=O)c2cnc3ccccc3c2)cc1)c1cnc2[nH]ncc2c1
IC50 [44]: 0.0082 µM | Papp A→B at 10 µM [17]: 1.6 ×10⁻⁶ cm/s | IC50 [23]: 0.0022 µM | fraction unbound at 5 µM [29]: 0.009 | inhibition [30]: inactive | solubility [32]: < 1 µM

CCCn1cc(S(=O)(=O)c2ccc(CNC(=O)c3cnc4[nH]ncc4c3)cc2)cn1
IC50 [44]: 0.01 µM | Papp A→B at 10 µM [17]: 1.9 ×10⁻⁶ cm/s | IC50 [23]: 0.0069 µM | fraction unbound at 5 µM [29]: 0.071 | inhibition [30]: inactive | solubility [32]: 8.8 µM (≈ 3.74 µg/mL)

O=C(NCc1ccc(S(=O)(=O)c2ccc(N3CCOCC3)nc2)cc1)c1cnc2[nH]ncc2c1
IC50 [44]: 0.0045 µM | Papp A→B at 10 µM [17]: 0.85 ×10⁻⁶ cm/s | IC50 [23]: 0.0013 µM | fraction unbound at 5 µM [29]: 0.019 | inhibition [30]: inactive | solubility [32]: < 1 µM

O=C(NCc1ccc(S(=O)(=O)c2cc(F)cc(F)c2)cc1)c1ccc2nccn2c1
IC50 [1]: 0.004 µM | concentration at 1 h [45]: 1900 nM | Kp at 6.5 h [46]: 0.3 | IC50 [7]: 0.009 µM | logD [8]: 3.2 | IC50 [10]: 0.002 µM | IC50 [11]: 0.041 µM | IC50 [12]: 0.024 µM | IC50 [13]: 0.003 µM | IC50 [15]: 0.012 µM | IC50 [18]: 0.007 µM | EC50 [21]: 0.0013 µM | Kp at 1 h [47]: 0.32 | IC50 [24]: 0.042 µM | Drug uptake [26]: 9 nM | Drug uptake [27]: 31 nM | IC50 [31]: 0.016 µM | IC50 [33]: 0.004 µM | concentration at 6.5 h [48]: 1300 nM | pKa [35]: 5.3 | IC50 [36]: 0.071 µM | Drug uptake [37]: 8 nM | IC50 [38]: 0.007 µM | IC50 [39]: 0.023 µM | Drug uptake [41]: 30 nM | IC50 [43]: 0.007 µM
